Measurements from article PMC6112376, “Comprehensive Analyses and Prioritization of Tox21 10K Chemicals Affecting Mitochondrial Function by in-Depth Mechanistic Studies” (Environmental Health Perspectives, 2018).
Read-outs that look alike come from different tables or passages of the source.

How the values were obtained:
[1] = system: mitochondrial respiratory chain complex I; assay type: biochemical, rat
[2] = system: Caenorhabditis elegans strain PE255; assay: In vivo C. elegans ATP status assay; settings: Caenorhabditis elegans, read-out: LEC LUM: lowest effect concentration for luminescence, a measure of nematode ATP content
[3] = system: HepG2 cells; assay: Intracellular ATP content (cell viability) assay; assay type: cell-based, human; settings: Homo sapiens, HepG2, 40 h
[4] = system: Caenorhabditis elegans (Bristol N2); settings: Bristol N2 (wild type), Caenorhabditis elegans, in vivo
[5] = system: rat primary hepatocytes
[6] = system: mitochondrial respiratory chain complex III; assay type: biochemical, rat
[7] = system: isolated rat liver mitochondria; assay: Oxygen consumption, Clark-type oxygen electrode; assay type: biochemical
[8] = system: HeLa cells expressing YFP-Parkin; assay: Parkin translocation assay; assay type: cell-based, human
[9] = system: mitochondrial respiratory chain complex V; assay type: biochemical, rat
[10] = system: mitochondrial respiratory chain complex IV; assay type: biochemical, rat
[11] = system: hNSC; assay: MMP assay in human neural stem cells (hNSC); assay type: cell-based; settings: Homo sapiens, Neural stem cell, 1 h, read-out: hNSC IC50 (MMP)
[12] = system: Nrf2/ARE (ARE-bla HepG2 cells); assay: ARE β-lactamase reporter gene assay; assay type: cell-based, human; settings: Homo sapiens, HepG2, 16 h, read-out: ARE (HepG2) EC50
[13] = system: HepG2 cells; assay: ROS-Glo hydrogen peroxide (ROS) assay; assay type: cell-based, human; settings: Homo sapiens, HepG2, 2 h, read-out: ROS (HepG2) EC50
[14] = system: HepG2 cells; settings: cited from earlier work
[15] = biological target: T1, mitochondrial respiratory chain complex II (Rattus norvegicus, UniProt P21913+Q641Z9+Q6PCT8+Q920L2); assay: Respiratory chain complex II activity; assay type: biochemical; settings: tested up to 100μM
T1 construct: Submitochondrial particles were prepared by subjecting the intact rat mitochondria, isolated as described above, to three successive freeze–thaw cycles; from tissue; host or cells: rat liver mitochondria (submitochondrial particles)
T1 sequence (Q920L2 35-656): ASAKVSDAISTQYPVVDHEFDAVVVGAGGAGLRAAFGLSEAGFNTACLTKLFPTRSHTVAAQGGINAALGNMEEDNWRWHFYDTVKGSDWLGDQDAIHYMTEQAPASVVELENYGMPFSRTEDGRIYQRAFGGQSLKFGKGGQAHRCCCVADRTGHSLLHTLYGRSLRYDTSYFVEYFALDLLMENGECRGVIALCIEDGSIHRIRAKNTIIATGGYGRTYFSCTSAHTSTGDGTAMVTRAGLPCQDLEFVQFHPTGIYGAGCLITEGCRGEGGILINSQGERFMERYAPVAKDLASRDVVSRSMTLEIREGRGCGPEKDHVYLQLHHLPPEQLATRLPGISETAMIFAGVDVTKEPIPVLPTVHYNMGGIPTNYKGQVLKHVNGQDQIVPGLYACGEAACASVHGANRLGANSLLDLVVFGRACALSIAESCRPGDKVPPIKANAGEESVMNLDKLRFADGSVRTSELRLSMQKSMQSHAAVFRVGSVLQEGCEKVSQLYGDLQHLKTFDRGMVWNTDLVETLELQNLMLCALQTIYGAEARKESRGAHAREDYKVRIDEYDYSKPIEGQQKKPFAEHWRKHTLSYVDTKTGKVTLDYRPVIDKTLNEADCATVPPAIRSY
T1 sequence (P21913 31-282): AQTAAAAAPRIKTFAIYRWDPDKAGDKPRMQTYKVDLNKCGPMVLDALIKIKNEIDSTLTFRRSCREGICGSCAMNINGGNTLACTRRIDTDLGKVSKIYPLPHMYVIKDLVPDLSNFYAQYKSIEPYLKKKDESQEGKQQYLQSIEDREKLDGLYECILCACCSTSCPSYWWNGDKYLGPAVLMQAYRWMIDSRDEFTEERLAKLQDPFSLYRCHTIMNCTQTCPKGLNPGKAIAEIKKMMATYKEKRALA
T1 sequence (Q641Z9 1-169): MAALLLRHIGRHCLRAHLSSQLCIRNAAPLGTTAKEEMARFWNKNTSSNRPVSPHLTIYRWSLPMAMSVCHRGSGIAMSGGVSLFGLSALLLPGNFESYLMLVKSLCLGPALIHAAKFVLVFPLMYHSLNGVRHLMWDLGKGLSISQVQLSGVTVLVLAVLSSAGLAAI
T1 sequence (Q6PCT8 57-159): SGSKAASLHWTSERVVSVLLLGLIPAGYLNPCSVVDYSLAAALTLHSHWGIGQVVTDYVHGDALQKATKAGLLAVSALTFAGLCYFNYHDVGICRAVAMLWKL

[16] = system: rat primary hepatocytes; assay: MMP assay in rat primary hepatocytes; settings: Rattus norvegicus, Hepatocyte
[17] = system: Caenorhabditis elegans (Bristol N2); assay: C. elegans larval development and growth assay
[18] = system: HepG2 cells; assay: cells; settings: Homo sapiens

## C=C(C)[C@H]1Cc2c(ccc3c2O[C@@H]2COc4cc(OC)c(OC)cc4[C@@H]2C3=O)O1 [Rotenone, reference compound]
[1]
  inhibitory effect on Complex I at (concentration): 0.032 µM
[1]; at 0.032μM
  Complex I % inhibition: 37.5±3.32 at 0.032μM %
[2]
  minimal effective concentration: 0.5 µM
[3]; read-out: ATP (HepG2, galactose) IC50
  IC50: 1630 nM
[3]; read-out: ATP (HepG2, glucose) IC50
  IC50: 1050 nM
[4]
  inhibitory effect at (concentration) on larval growth in the C. elegans assay: 0.05 µM
[5]
  MMP assays efficacy (%) Rat Hepatocytes: -86+39%
  Rat hepatocytes (efficacy) (MMP): 0.36±0.22 ( −85.9±10.7 ) %
[6]
  Complex III % inhibition (activity call): Inactive
[7]
  Potential Mechanism: Inhibitor (at complex I)
  effect on mitochondrial respiration (in words): only inhibited glutamate/malate-driven respiration, but not succinate-driven respiration
[7]; 0.00128 µM
  I-ADP, % of control (O2 consumption rate): 91 (44.7) % of control
  I-sub, % of control (O2 consumption rate): 113 (15.6) % of control
  II-ADP, % of control (O2 consumption rate): 98 (87.5) % of control
  II-sub, % of control (O2 consumption rate): 94 (25.3) % of control
[7]; 0.0064 µM
  I-ADP, % of control (O2 consumption rate): 81 (40.2) % of control
  I-sub, % of control (O2 consumption rate): 114 (15.8) % of control
  II-ADP, % of control (O2 consumption rate): 83 (74.3) % of control
  II-sub, % of control (O2 consumption rate): 56 (15.2) % of control
[7]; 0.032 µM
  I-ADP, % of control (O2 consumption rate): 27 (13.1) % of control
  I-sub, % of control (O2 consumption rate): 86 (11.9) % of control
  II-ADP, % of control (O2 consumption rate): 97 (86.1) % of control
  II-sub, % of control (O2 consumption rate): 79 (21.4) % of control
[7]; 0.16 µM
  I-ADP, % of control (O2 consumption rate): 20 (9.9) % of control
  I-sub, % of control (O2 consumption rate): 71 (9.9) % of control
  II-ADP, % of control (O2 consumption rate): 107 (95.0) % of control
  II-sub, % of control (O2 consumption rate): 97 (26.3) % of control
[7]; 0.8 µM
  I-ADP, % of control (O2 consumption rate): 18 (8.9) % of control
  I-sub, % of control (O2 consumption rate): 64 (8.9) % of control
  II-ADP, % of control (O2 consumption rate): 99 (88.3) % of control
  II-sub, % of control (O2 consumption rate): 99 (26.9) % of control
[7]; 4 µM
  I-ADP, % of control (O2 consumption rate): 19 (9.5) % of control
  I-sub, % of control (O2 consumption rate): 64 (8.8) % of control
  II-ADP, % of control (O2 consumption rate): 97 (86.3) % of control
  II-sub, % of control (O2 consumption rate): 97 (26.2) % of control
[7]; 20 µM
  I-ADP, % of control (O2 consumption rate): 18 (8.8) % of control
  I-sub, % of control (O2 consumption rate): 62 (8.6) % of control
  II-ADP, % of control (O2 consumption rate): 95 (84.3) % of control
  II-sub, % of control (O2 consumption rate): 107 (28.9) % of control
[8]
  Parkin recruitment: Inactive
[8]; 3 h
  Parkin translocation into mitochondria (in words): did not induce Parkin translocation
[9]
  Complex V % inhibition (activity call): Inactive
[10]
  Complex IV % inhibition (activity call): Inactive
[11]
  IC50: 23700 nM
[12]
  EC50: 50 ± 20 nM
[13]
  EC50: 4040 nM
[14]
  MMP assays efficacy (%) qHTS-HepG2: -104±7%
[14]; read-out: MMP assays IC50 (µM), qHTS-HepG2
  IC50: 17.4 ± 1.94 µM
[15]
  Complex II % inhibition (activity call): Inactive
[16]; 1 h, read-out: Rat hepatocytes IC50 (MMP)
  IC50: 0.36 µM
[16]; read-out: MMP assays IC50 (µM) Rat Hepatocytes
  IC50: 0.2 ± 0.3 µM
[17]; 0.5 µM
  larval growth effect at 0.5μM: severe larval growth arrest
[17]; Caenorhabditis elegans, read-out: LEC EXT: lowest effect concentration for extinction, a measure of nematode size
  minimal effective concentration: 0.05 µM
[18]; HepG2, 1 h, read-out: HepG2 IC50 Galactose (MMP)
  IC50: 31.8 µM
[18]; HepG2, 1 h, read-out: HepG2 IC50 Glucose (MMP)
  IC50: 44.7 µM
[18]; HepG2, read-out: MMP assays IC50 (µM) HepG2
  IC50: 0.0123 µM
[18]; HepG2, read-out: MMP assays efficacy (%) HepG2
  Emax: 95%
